Patent US20200039939A1, “QUINOLINE AMINES USEFUL AS CYTOPROTECTIVE AGENTS” (priority 2015, published 2020)
pEC50: −log10 of the molar value.

Legend:
SERCA = target: T1, SERCA (Homo sapiens, UniProt P16615); assay: Ca-ATPase assay (NADH-linked, enzyme-coupled ATPase assay); assay type: biochemical; settings: microsomal preparations from HEK 293 cells, Vmax from Hill fit of ATPase calcium-dependence, relative to controls
T1 construct: microsomal preparations from HEK 293 cells; endogenous in cells; host or cells: HEK 293 cells (microsomal preparation)
Protocol: A Ca-ATPase assay was performed using microsomal preparations from HEK 293 cells at a series of calcium concentrations corresponding to the physiological range, relative to controls. The ATP hydrolysis rate was measured over a range of calcium concentrations in the presence of test compounds using an NADH-linked, enzyme-coupled ATPase assay adapted for 96-well microplates, with Vmax determined by fitting the ATPase calcium-dependence to the Hill function. Each well contained 2 μg or 7 μg of SR vesicles (optimized for skeletal or cardiac SR, respectively), 50 mM MOPS (pH 7.0), 100 mM KCl, 5 mM MgCl2, 1 mM EGTA, 0.2 mM NADH, 1 mM phosphoenol pyruvate, 5 IU pyruvate kinase, 5 IU lactate dehydrogenase, and 3.5 μg/mL A23187 (a calcium ionophore). CaCl2 was added to set free [Ca^2+] to the specific values. The assay was started upon addition of ATP at a final concentration of 5 mM, and read in a SpectraMax Plus microplate spectrophotometer. The results are summarized in Table 4, where A represents an increase in SERCA Vmax greater than or equal to 50% and B represents a value greater than 10% and less than 50%.

CSM14.1 neuronal cells = assay: Cell survival assay (thapsigargin-treated CSM14.1 neuronal cells, CELLTITER-GLO); assay type: cell-based; settings: 2 hrs compound pre-incubation, about 15 μM thapsigargin, overnight, luminescence
Protocol: CSM14.1 neuronal cells were maintained in Complete Medium at 32° C.; wherein the Complete Medium contained Dulbecco's modified eagle medium (DMEM) with 10% fetal bovine serum (FSB), 1% L-glutamine, 100 IU/mL penicillin, and 100 μg/mL streptomycin. The cells were recovered from cultures by trypsinization and then seeded in 384 well plates (Greiner #781098) at a concentration of 1,000 cells/well in 20 μL of DMEM Assay Medium, wherein the DMEM Assay Medium contained 2% FBS, 100 IU/mL penicillin, and 100 μg/mL streptomycin. Seeding was performed using a MultiDrop Combi reagent broadcaster. The plates were incubated overnight at 32° C. A test compound was prepared by 2-fold serial dilution in 100% DMSO using a BIOMEK® 2000 liquid handler (Beckman Coulter). A dose-response curve containing 10 concentrations of the test compound was obtained. Using a BIOMEK® FX liquid handler (Beckman Coulter), 2.5 μL of the test compound was transferred from the 100% DMSO serial dilution plate to an intermediate plate containing 47.5 μL of DMEM Assay Medium containing 2% FBS, 100 IU/mL penicillin, and 100 μg/mL streptomycin and mixed. To reduce or eliminate the interference from the compound's precipitation, 6 μL of the diluted compound was immediately transferred to the assay plate to achieve a high compound concentration of 100 µM in 99% DMEM Assay Medium and 1% DMSO. After the assay plates were incubated for 2 hrs, 4 μL of 112.5 μM thapsigargin (TG) (DMSO stock diluted into Assay TC Medium) was dispensed into each testing well with a MultiDrop Combi reagent broadcaster for a final concentration of about 15 μM TG. The tissue culture media (4 μL) containing vehicle only was transferred manually to each control cell using a 16 channel electronic pipette. After the plates were incubated overnight (about 16 to 24 hrs), CELLTITER-GLO® (Promega) (16 μL) was added to all wells and luminescence was measured. High luminescence indicates cell survival. The biological results are summarized in Table 1 where A represents a cell viability EC50 less than 10 μM and B represents a value greater than 10 μM and less than 20 μM.

[1] = tested on: Human embryonic kidney (HEK293) cells / mouse neuroblastoma (N2a) cells; assay: Cell rescue assay: protection against thapsigargin (TG)-induced cell-death (ALAMARBLUE); assay type: cell-based; settings: compound 20 μM, 2 hrs before thapsigargin (15 μM HEK293, 1 μM N2a), 24 hrs, viability as % RFU of control, read-out: Cell Survival %
Protocol: Protection against Thapsigargin (TG)-induced Cell-death. Human embryonic kidney (HEK293) cells were grown in Dulbecco's Modified Eagle's Medium (DMEM) with 10% FBS and 1% antibiotic antimycotic solution (ABAM). Mouse neuroblastoma (N2a) cells were grown in 1:1 DMEM:OPTI-MEM® with 5% FBS and 1% ABAM. All cells were grown in 10% CO2 in a humidified environment of the incubator. Cells grown in 96-well plates were exposed to a test compound (20 μM) for 2 hrs before addition of thapsigargin (15 μM for HEK293 cells and 1 μM for N2a cells) to induce ER stress. After incubation in cell-culture incubator for 24 hrs, ALAMARBLUE® regent (10% v/v) was added to the wells. Fluorescence reading was taken 2 hrs after the addition of the ALAMARBLUE® regent. Cell-viability was calculated as a percentage of relative fluorescence unit (RFU) compared to control. […] The biological results are summarized in Table 2, where each compound was tested at 20 μM and where A represents a viability greater than 50%, B represents a viability greater than 10% and less than 50%, C represents a value below 10%.

Human SH-SY5Y cells = assay: Cell rescue assay: protection against amyloid (AB1-42)-induced cell toxicity; assay type: cell-based; settings: 96 h, 7.5 uM compound (final), AB1-42 at 10 uM, 4 days, OD 490 nm, read-out: Cell Survival % (cell rescue)
Protocol: Protection against 1-amyloid-induced cell toxicity. Chonpathompikunlert et al. Eu. J. Pharmacol. 2011, 650, 544-549. Human SH-SY5Y cells are suspended in media containing 2% FBS and 2× Gentamicin. Transfer 100 ul/well culture to 96-well plate (20,000 cells/well; passage #5) and incubate overnight. Prepare compound samples at 30 uM. Add 50 ul of the samples to the cells [[…]] and incubate 3 hours. Make stock of 40 uM AB1-42 peptide in assay media. Transfer 50 ul/well to cells/compounds in assay plate. The final assay volume is 200 ul/well, containing 2% FBS, 2× Gentamicin, 7.5 uM compound and AB1-42 at 10 uM. Incubate for 4 days then add 20 ul of Promega Substrate Cell Titer 96 Aqueous One Solution Reagent to each well. Incubate 37° C. and read OD at 490 nm. The results are summarized in Table 3, where A represents a value greater than 40% cell rescue, B represents a value greater than 10% and less than or equal to 40% cell rescue, and C represents a value greater than 1% and less than or equal to 10% cell rescue.

Ob/ob mice = assay: Effect of a SERCA agonist on the level of blood glucose; assay type: in vivo; settings: Mus musculus, ip, 96 h, 50 mg/kg i.p. once a day for 5 days, fasting glucose at baseline and 4 days after administration, read-out: Glucose level reduction
Protocol: Ob/ob mice (10 weeks old, n=7) were intraperitoneally (i.p.) injected with 100 μL of a solution containing 0 (vehicle) or 50 mg/kg of a test compound once a day for a total of 5 days. Fasting glucose was measured at baseline and 4 days after the administration of the test compound. Glucose levels were measured in blood samples drawn from the tail vein using a handheld glucose sensor. Compound effects on blood glucose are shown in Table 5 where A represents a 10-20% reduction in blood glucose, B represents a 21-30% reduction in blood glucose, and C represents a greater than 30% reduction in blood glucose levels.

T1 sequence (P16615 whole entry): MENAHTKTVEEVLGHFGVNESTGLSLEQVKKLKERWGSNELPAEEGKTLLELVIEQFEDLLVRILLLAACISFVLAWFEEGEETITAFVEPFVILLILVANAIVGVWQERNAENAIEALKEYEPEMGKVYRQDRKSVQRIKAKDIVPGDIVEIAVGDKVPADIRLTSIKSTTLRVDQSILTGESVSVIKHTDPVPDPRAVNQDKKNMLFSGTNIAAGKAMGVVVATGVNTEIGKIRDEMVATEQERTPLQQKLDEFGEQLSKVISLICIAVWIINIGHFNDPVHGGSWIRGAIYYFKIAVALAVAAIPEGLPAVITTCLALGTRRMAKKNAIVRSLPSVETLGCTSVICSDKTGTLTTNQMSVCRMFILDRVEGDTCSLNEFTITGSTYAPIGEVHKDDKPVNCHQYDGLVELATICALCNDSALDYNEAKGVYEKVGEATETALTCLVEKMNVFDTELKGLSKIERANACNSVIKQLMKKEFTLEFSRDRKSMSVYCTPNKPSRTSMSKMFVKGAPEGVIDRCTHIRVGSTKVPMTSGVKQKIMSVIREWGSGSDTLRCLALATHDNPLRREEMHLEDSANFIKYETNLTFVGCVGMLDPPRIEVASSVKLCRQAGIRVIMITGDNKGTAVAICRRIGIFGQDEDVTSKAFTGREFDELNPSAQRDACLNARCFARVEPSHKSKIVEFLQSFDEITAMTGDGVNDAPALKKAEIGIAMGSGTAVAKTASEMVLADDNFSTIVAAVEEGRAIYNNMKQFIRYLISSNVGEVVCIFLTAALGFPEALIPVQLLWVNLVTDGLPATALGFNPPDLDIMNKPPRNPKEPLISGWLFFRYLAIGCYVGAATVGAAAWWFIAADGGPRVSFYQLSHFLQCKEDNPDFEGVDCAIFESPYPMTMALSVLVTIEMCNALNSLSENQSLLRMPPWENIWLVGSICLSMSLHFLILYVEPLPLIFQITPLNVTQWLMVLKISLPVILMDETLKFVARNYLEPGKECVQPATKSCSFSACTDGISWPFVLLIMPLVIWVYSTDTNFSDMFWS

| Compound | SERCA Vmax Increase (SERCA) | pEC50 (CSM14.1 neuronal cells) | viability at 20 µM [1] | viability at 7.5 µM (Human SH-SY5Y cells) | inhibition in vivo at 50 mg/kg (Ob/ob mice) |
| --- | --- | --- | --- | --- | --- |
| Cc1ccc2cccc(NCc3ccc(C#N)cc3)c2n1 [C7, N-(4-Cyanobenzyl)-2-methylquinolin-8-amine] | B (B represents a value greater than 10% and less than 50%) | 4.70 to 5.00 | < 10% | 10 to 40% | 10 to 20% |
| Cc1ccc2cccc(NCc3ccc(C(F)(F)F)cc3)c2n1 [C6, N-(4-Trifluoromethylbenzyl)-2-methylquinolin-8-amine] | B (B represents a value greater than 10% and less than 50%) | > 5.00 | > 50% | > 40% | 10 to 20% |
| Cc1ccc2cccc(NCc3ccc(OC(C)C)cc3)c2n1 [C1, N-(4-Isopropoxybenzyl)-2-methylquinolin-8-amine] | B (B represents a value greater than 10% and less than 50%) | > 5.00 | > 50% | > 40% | > 30% |
| Cc1ccc2cccc(NCc3ccc(Br)s3)c2n1 [C3, N-((5-Bromothiophen-2-yl)methyl)-2-methylquinolin-8-amine] | B (B represents a value greater than 10% and less than 50%) | > 5.00 | > 50% | > 40% | 21 to 30% |
| Cc1ccc2cccc(NCc3cc(Br)cs3)c2n1 [C2, N-((4-Bromothiophen-2-yl)methyl)-2-methylquinolin-8-amine] | B (B represents a value greater than 10% and less than 50%) | > 5.00 | 10 to 50% | 10 to 40% | 21 to 30% |
| Cc1ccc2cccc(NCc3ccc(Cl)cc3)c2n1 [C4, N-(4-Chlorobenzyl)-2-methylquinolin-8-amine] | A (A represents an increase in SERCA Vmax greater than or equal to 50%) | > 5.00 | > 50% | > 40% | 10 to 20% |
| COc1c(C)cccc1CNc1cccc2ccc(C)nc12 [C5, N-(2-Methoxy-3-methyl)-2-methylquinolin-8-amine] | A (A represents an increase in SERCA Vmax greater than or equal to 50%) | 4.70 to 5.00 | 10 to 50% | 1 to 10% | 21 to 30% |
| Cc1ccc2cccc(NCc3ccc(C)s3)c2n1 [C8, N-((5-Methylthiophen-2-yl)methyl)-2-methylquinolin-8-amine] | B (B represents a value greater than 10% and less than 50%) | > 5.00 | 10 to 50% | > 40% | > 30% |
| Cc1ccc2cccc(NCc3ccc(C)o3)c2n1 [C9, N-((5-Methylfuran-2-yl)methyl)-2-methylquinolin-8-amine] | B (B represents a value greater than 10% and less than 50%) | 4.70 to 5.00 | < 10% | 1 to 10% | 21 to 30% |
| Cc1ccc2cccc(NCc3cc4ccccc4s3)c2n1 [C10, N-(Benzo[b]thiophen-2-ylmethyl)-2-methylquinolin-8-amine] | B (B represents a value greater than 10% and less than 50%) | 4.70 to 5.00 | 10 to 50% | 10 to 40% | 21 to 30% |
